According to ChEMBL document CHEMBL1687721, “New drugs against tuberculosis: problems, progress, and evaluation of agents in clinical development” (Antimicrob Agents Chemother, 2009):
Values after ≈ are worked out from the molar mass of the structure shown.

How the values were obtained:
Assay type in all cases: functional
[1] = test system: Mycobacterium tuberculosis; assay: Antimicrobial activity against rifampicin-resistant Mycobacterium tuberculosis
[2] = test system: Mycobacterium tuberculosis; assay: Antimicrobial activity against multiple drug-resistant Mycobacterium tuberculosis
[3] = test system: Mycobacterium tuberculosis; assay: Antimicrobial activity against compound-resistant Mycobacterium tuberculosis

SMILES | MIC [1] | MIC [2] | MIC [3]
CO[C@H]1/C=C/O[C@@]2(C)Oc3c(C)c(O)c4c(O)c(c(/C=N/N5CCN(C6CCCC6)CC5)c(O)c4c3C2=O)NC(=O)/C(C)=C\C=C\[C@H](C)[C@H](O)[C@@H](C)[C@@H](O)[C@@H](C)[C@H](OC(C)=O)[C@@H]1C [RIFAPENTINE] | 0.02 µg/mL (≈ 0.0228 µM) |  | 
COc1nc2ccc(Br)cc2cc1[C@@H](c1ccccc1)[C@@](O)(CCN(C)C)c1cccc2ccccc12 [BEDAQUILINE] |  | 0.03 µg/mL (≈ 0.054 µM) | 
CC(C)=CCC/C(C)=C/CNCCNC1C2CC3CC(C2)CC1C3 (stereo unspecified) [SQ109] |  |  | 0.16 µg/mL (≈ 0.484 µM)
COc1c(N2CCNC(C)C2)c(F)cc2c(=O)c(C(=O)O)cn(C3CC3)c12 (stereo unspecified) [GATIFLOXACIN] | 0.2 µg/mL (≈ 0.533 µM) |  | 
O=[N+]([O-])c1cn2c(n1)OC[C@@H](OCc1ccc(OC(F)(F)F)cc1)C2 [PRETOMANID] |  | 0.015 µg/mL (≈ 0.0418 µM) | 
C[C@]1(COc2ccc(N3CCC(Oc4ccc(OC(F)(F)F)cc4)CC3)cc2)Cn2cc([N+](=O)[O-])nc2O1 |  |  | 0.006 µg/mL (≈ 0.0112 µM)
